Experimental data from PubChem BioAssay AID2060622 (Molecular Pharmacology Branch, DTP, NCI, 2025).
pIC50: −log10 of the molar value.

Test system: 242566-281-R-J2-PDC complex spheroid viability
Assay: Anticancer human tumor 242566-281-R-J2-PDC patient-derived pancreatic carcinoma cell line growth inhibition [CLK]
Settings: for pIC50: curve of first compound; for viability, T/C: stronger effect = lower value
Excerpt: A high-throughput screen of multi-cell type tumor spheroids was designed to identify active combinations of […] and targeted small molecules. Complex spheroids include a stromal component modeled by human endothelial cells (HUVEC) and fibroblasts modeled by human mesenchymal stem cells (MSCs). The concentration ranges selected for each drug and investigational agent were based upon clinically achievable concentrations if the clinical Cmax of the agent was known.
Compounds. The drugs and investigational agents: cirtuvivint (SM08502; NSC835563), CC-671 (NSC850746), vemurafenib (NSC761431), tapotoclax (NSC804041), sotorasib (NSC818433), adagrasib (NSC831453), MRTX-1133 (NSC836407), BAY2416964 (NSC825713), copanlisib (NSC816437), inavolisib (NSC800729), abemaciclib (NSC768073), osimertinib (NSC779217), entinostat (NSC756642), eltanexor (KPT-8602, NSC794443), venetoclax (NSC766270), ceralasertib (NSC777638), bortezomib (NSC756655), olaparib (NSC753686), talazoparib (NSC767125), alisertib (NSC759677), peposertib (NSC802822), gemcitabine (NSC613327), 5-fluorouracil (NSC19893), SN-38 (NSC673596), oxaliplatin (NSC266046), paclitaxel (NSC125973), and doxorubicin (NSC123127), were obtained from the National Cancer Institute (NCI) Developmental Therapeutics Program Chemical Repository. The FDA-approved anticancer drug set is available from the Developmental Therapeutics Program at https://dtp.cancer.gov/organization/dscb/obtaining/available plates.htm. […] The stock solutions were prepared in dimethyl sulfoxide (DMSO, Sigma-Aldrich, St. Louis, MO, cat. D2650), except for the platinum complexes which were prepared in saline (Quality Biological, Gaithersburg, MD, cat. 114-055-101), at 800-fold the tested concentration and stored at -70 degrees C prior to their use. All drugs and investigational agents were tested over a range starting from a high concentration at or near the clinical Cmax and decreasing in half-log increments. If the clinical Cmax for an agent had not been determined, the highest concentration tested was 10 microM.
Cell Culture. All cells were maintained in an incubator at 37 degrees C and 5% CO2 with 95% humidity. The PDC lines were cultured according to standard operating procedures established by the NCI PDMR. Briefly, all PDCs were thawed and cultured in Matrigel-coated flasks prepared with a working solution of 1X Ham's F-12 nutrient mix, without supplementation (Invitrogen, Waltham, MA, cat. 11765054), 100 U/mL penicillin-streptomycin (Invitrogen, cat. 15140122), and 2.5% Matrigel (Corning Inc., Corning, NY, cat. 354248) for the first three passages. The 947758-054-R-J2-PDC line was cultured in 6B/Colon 1A media, which includes advanced DMEM/F-12 (Thermo Fisher Scientific, cat. 12634028), 10 mM HEPES (Thermo Fisher Scientific, cat. 15630080), 1X GlutaMAX supplement (Thermo Fisher Scientific, cat. 35050061), 0.1 mg/mL primocin (InvivoGen, cat. ant-pm-2), 10% defined fetal bovine serum, heat inactivated (HyClone Laboratories Inc., cat. SH30070.03HI), 1.25 mM N-Acetyl-L-cysteine (Sigma-Aldrich, cat. A9165), 10 mM nicotinamide (Sigma-Aldrich, cat. N0636), 1X B-27 supplement (Thermo Fisher Scientific, cat. 17504044), 1X N-2 supplement (Thermo Fisher Scientific, cat. 17502048), and 10 microM Y-27632 dihydrochloride (Tocris Bioscience, cat. 1254). The 876862-298-R-J1-PDC was cultured in 6E media, which includes all 6B/Colon 1A media components plus 50% L-WRN conditioned media (ATCC, cat. CRL-3276), 50 ng/mL recombinant human EGF recombinant protein (hEGF; Thermo Fisher Scientific, cat. PHG0311), 10 ng/mL recombinant human fibroblast growth factor 10 (hGFG-10; PeproTech, cat. 100-26), 1 ng/mL recombinant human fibroblast growth factor 2 (hFGF-2; PeproTech, cat. 100-18B), and 1 µM prostaglandin E2 (PGE2; Tocris, cat. 2296). The 227483-062-R1-J1-PDC line was cultured in Panc media, containing all 6E components except hFGF-2, with the addition of 500 nM SB-431542 (Selleckchem, cat. S1067) and 10 nM gastrin (Tocris, cat. 3006). […]

[1] = second compound 0.0316 µM, first compound 0.0316 µM
[2] = second compound 0.0316 µM, first compound 0.1 µM
[3] = second compound 0.0316 µM, first compound 0.316 µM
[4] = second compound 0.0316 µM, first compound 1 µM
[5] = second compound 0.0316 µM, first compound 3.16 µM
[6] = second compound 0.0316 µM, first compound 10 µM
[7] = second compound 0.1 µM, first compound 0.0316 µM
[8] = second compound 0.1 µM, first compound 0.1 µM
[9] = second compound 0.1 µM, first compound 0.316 µM
[10] = second compound 0.1 µM, first compound 1 µM
[11] = second compound 0.1 µM, first compound 3.16 µM
[12] = second compound 0.1 µM, first compound 10 µM
[13] = second compound 0.316 µM, first compound 0.0316 µM
[14] = second compound 0.316 µM, first compound 0.1 µM
[15] = second compound 0.316 µM, first compound 0.316 µM
[16] = second compound 0.316 µM, first compound 1 µM
[17] = second compound 0.316 µM, first compound 3.16 µM
[18] = second compound 0.316 µM, first compound 10 µM
[19] = second compound 1 µM, first compound 0.0316 µM
[20] = second compound 1 µM, first compound 0.1 µM
[21] = second compound 1 µM, first compound 0.316 µM
[22] = second compound 1 µM, first compound 1 µM
[23] = second compound 1 µM, first compound 3.16 µM
[24] = second compound 1 µM, first compound 10 µM
[25] = second compound 3.16 µM, first compound 0.0316 µM
[26] = second compound 3.16 µM, first compound 0.1 µM
[27] = second compound 3.16 µM, first compound 0.316 µM
[28] = second compound 3.16 µM, first compound 1 µM
[29] = second compound 3.16 µM, first compound 3.16 µM
[30] = second compound 3.16 µM, first compound 10 µM
[31] = second compound 10 µM, first compound 0.0316 µM
[32] = second compound 10 µM, first compound 0.1 µM
[33] = second compound 10 µM, first compound 0.316 µM
[34] = second compound 10 µM, first compound 1 µM
[35] = second compound 10 µM, first compound 3.16 µM
[36] = second compound 10 µM, first compound 10 µM
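Also: spheroids exposed to compounds for 7 days before readout.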
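For viability, T/C in this document: 100% = DMSO vehicle control wells.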

Compound: C=CC(=O)N1CCN(c2nc(=O)n(-c3c(C)ccnc3C(C)C)c3nc(-c4c(O)cccc4F)c(F)cc23)C(C)C1 (centres undefined) + CN1CCN(c2cc(C(=O)Nc3cc4cc(-c5cnn(C)c5)ccc4cn3)ccn2)CC1
- pIC50 (second compound 0.0316 µM): < 5.00
- pIC50 (second compound 0.1 µM): < 5.00
- pIC50 (second compound 0.316 µM): > 7.50
- pIC50 (second compound 1 µM): > 7.50
- pIC50 (second compound 3.16 µM): > 7.50
- pIC50 (second compound 10 µM): > 7.50
- viability, T/C [1]: 113%
- viability, T/C [2]: 105%
- viability, T/C [3]: 102%
- viability, T/C [4]: 117%
- viability, T/C [5]: 103%
- viability, T/C [6]: 72.9%
- viability, T/C [7]: 106%
- viability, T/C [8]: 94.3%
- viability, T/C [9]: 81.6%
- viability, T/C [10]: 109%
- viability, T/C [11]: 105%
- viability, T/C [12]: 67.5%
- viability, T/C [13]: 47.2%
- viability, T/C [14]: 47.3%
- viability, T/C [15]: 40.8%
- viability, T/C [16]: 45.2%
- viability, T/C [17]: 48.2%
- viability, T/C [18]: 23.4%
- viability, T/C [19]: 5.06%
- viability, T/C [20]: 5.31%
- viability, T/C [21]: 6.97%
- viability, T/C [22]: 9.26%
- viability, T/C [23]: 11.1%
- viability, T/C [24]: 6.36%
- viability, T/C [25]: 7.67%
- viability, T/C [26]: 8.25%
- viability, T/C [27]: 11.1%
- viability, T/C [28]: 11.7%
- viability, T/C [29]: 11.6%
- viability, T/C [30]: 8.7%
- viability, T/C [31]: 2.18%
- viability, T/C [32]: 2.58%
- viability, T/C [33]: 2.81%
- viability, T/C [34]: 4.46%
- viability, T/C [35]: 4.9%
- viability, T/C [36]: 2.7%

Compound: COC1C=CCC(C)C(C)S(=O)(=O)NC(=O)c2ccc3c(c2)N(CC2CCC21)CC1(CCCc2cc(Cl)ccc21)CO3 (centres undefined) + CN1CCN(c2cc(C(=O)Nc3cc4cc(-c5cnn(C)c5)ccc4cn3)ccn2)CC1
- pIC50 (second compound 0.0316 µM): 5.28
- pIC50 (second compound 0.1 µM): 5.46
- pIC50 (second compound 0.316 µM): > 7.50
- pIC50 (second compound 1 µM): > 7.50
- pIC50 (second compound 3.16 µM): > 7.50
- pIC50 (second compound 10 µM): > 7.50
- viability, T/C [1]: 93%
- viability, T/C [2]: 119%
- viability, T/C [3]: 101%
- viability, T/C [4]: 81.6%
- viability, T/C [5]: 78.9%
- viability, T/C [6]: 20.3%
- viability, T/C [7]: 93.2%
- viability, T/C [8]: 94.1%
- viability, T/C [9]: 87.8%
- viability, T/C [10]: 66.6%
- viability, T/C [11]: 56.6%
- viability, T/C [12]: 16.5%
- viability, T/C [13]: 37.5%
- viability, T/C [14]: 34.1%
- viability, T/C [15]: 28.7%
- viability, T/C [16]: 16.1%
- viability, T/C [17]: 12.8%
- viability, T/C [18]: 3.62%
- viability, T/C [19]: 4.66%
- viability, T/C [20]: 4.57%
- viability, T/C [21]: 3.7%
- viability, T/C [22]: 4.79%
- viability, T/C [23]: 3.13%
- viability, T/C [24]: 2.17%
- viability, T/C [25]: 7.61%
- viability, T/C [26]: 7.11%
- viability, T/C [27]: 6.63%
- viability, T/C [28]: 7.11%
- viability, T/C [29]: 6.71%
- viability, T/C [30]: 4.96%
- viability, T/C [31]: 1.98%
- viability, T/C [32]: 1.96%
- viability, T/C [33]: 1.79%
- viability, T/C [34]: 1.93%
- viability, T/C [35]: 1.82%
- viability, T/C [36]: 0.48%
